According to patent US6576675B1, “Z-styryl sulfone anticancer agents” (Temple University - Of the Commonwealth System of Higher …, priority 1999, dated 2003):

Legend:
Format in all cases: cell-based
[1] = test system: Ovarian cell lines: OVCAR, SKOV3; assay: Viability assay (Trypan blue exclusion), ovarian tumor cell lines; details: Homo sapiens, 2.5 mM, 72 hours, read-out: % Death, tumor cell type Ovarian
Experimental: (§1) The effect of the Z-styryl sulfones on normal fibroblasts and on tumor cells of breast, prostate and ovarian origin was examined utilizing the following cell lines: breast tumor cell lines: MCF-7, BT-20 and 435; prostate tumor cell lines LnCaP and DU-145; and ovarian tumor cell lines OVCAR and SKOV3. NIH/3T3 and HFL cells, which are normal murine and human fibroblasts, respectively, were also tested. LnCap is an androgen-dependent prostate tumor cell line. MCF-7 is an estrogen-responsive breast tumor cell line, while BT-20 and 435 are estrogen-unresponsive breast tumor cell lines. MCF-7, BT-20 and 435 were grown in Dulbecco's modified Eagle's medium (DMEM) containing 10% fetal bovine serum supplemented with penicillin and streptomycin. LnCaP and Du145 were cultured in RPMI with 10% fetal bovine serum containing penicillin and streptomycin. NIH3T3 and HFL cells were grown in DMEM containing 10% calf serum supplemented with penicillin and streptomycin. All cell cultures were maintained at 37° C. in a humidified atmosphere of 5% CO2.
(§2) Cells were treated with test compound at 2.5 mM concentration and cell viability was determined after 72 hours by the Trypan blue exclusion method.
(§3) Activity for each compound is reported as a range of cell induced death (% Death) with the lowest activity in the range of 10-20% and the highest being above 75%.

[2] = test system: Prostate cell lines: LnCaP, DU-145; assay: Viability assay (Trypan blue exclusion), prostate tumor cell lines; details: 2.5 mM, 72 hours, read-out: % Death, tumor cell type Prostate
Experimental: as §1, §2, §3

[3] = test system: Breast cell lines: MCF-7, BT-20, 435; assay: Viability assay (Trypan blue exclusion), breast tumor cell lines; details: 2.5 mM, 72 hours, read-out: % Death, tumor cell type Breast
Experimental: as §1, §2, §3

[4] = test system: Lung cell lines: N417, H157; assay: Viability assay (Trypan blue exclusion), lung tumor cell lines; details: 2.5 mM, 72 hours, read-out: % Death, tumor cell type Lung
Experimental: as §2, §3
(§4) The procedure of Example 22 was followed for certain of the (Z)-benzylsulfones, substituting the following cancer cell lines: lung, N417 and H157; renal, CAKI-1 and CAKI-2; glioma, U87 and SW1088.

[5] = test system: Renal cell lines: CAKI-1, CAKI-2; assay: Viability assay (Trypan blue exclusion), renal tumor cell lines; details: 2.5 mM, 72 hours, read-out: % Death, tumor cell type Renal
Experimental: as §2, §3, §4

[6] = test system: Glioma cell lines: U87, SW1088; assay: Viability assay (Trypan blue exclusion), glioma cell lines; details: Homo sapiens, 2.5 mM, 72 hours, read-out: % Death, tumor cell type Glioma
Experimental: as §2, §3, §4

| SMILES | cytotoxicity at 2500 µM [1] | cytotoxicity at 2500 µM [2] | cytotoxicity at 2500 µM [3] | cytotoxicity at 2500 µM [4] | cytotoxicity at 2500 µM [5] | cytotoxicity at 2500 µM [6] |
| --- | --- | --- | --- | --- | --- | --- |
| O=S(=O)(/C=C\c1ccccc1)Cc1ccccc1 [Example 1, Z-styryl Benzylsulfone] | 10 to 20% | 10 to 20% | 10 to 20% |  |  |  |
| O=S(=O)(/C=C\c1ccccc1)Cc1ccc(Cl)cc1 [Example 2, Z-styryl 4-Chlorobenzylsulfone] | 20 to 25% | 20 to 25% | 20 to 25% |  |  |  |
| O=S(=O)(/C=C\c1ccccc1)Cc1ccccc1Cl [Example 3, Z-styryl 2-Chlorobenzylsulfone] | 20 to 25% | 20 to 25% | 20 to 25% |  |  |  |
| O=S(=O)(/C=C\c1ccccc1)Cc1ccc(F)cc1 [Example 4, Z-styryl 4-Fluorobenzylsulfone] | 20 to 25% | 20 to 25% | 20 to 25% |  |  |  |
| O=S(=O)(/C=C\c1ccc(Cl)cc1)Cc1ccccc1 [Example 5, Z-4-Chlorostyryl Benzylsulfone] | 20 to 25% | 20 to 25% | 20 to 25% | 20 to 25% | 20 to 25% | 20 to 25% |
| O=S(=O)(/C=C\c1ccc(Cl)cc1)Cc1ccc(Cl)cc1 [Example 6, Z-4-Chlorostyryl 4-Chlorobenzylsulfone] | 60 to 70% | 60 to 70% | 60 to 70% | 60 to 70% | 60 to 70% | 60 to 70% |
| O=S(=O)(/C=C\c1ccc(Cl)cc1)Cc1ccccc1Cl [Example 7, Z-4-Chlorostyryl 2-Chlorobenzylsulfone] | 20 to 25% | 20 to 25% | 20 to 25% | 20 to 25% | 20 to 25% | 20 to 25% |
| O=S(=O)(/C=C\c1ccc(Cl)cc1)Cc1ccc(F)cc1 [Example 8, Z-4-Chlorostyryl 4-Fluorobenzylsulfone] | > 75% | > 75% | > 75% | > 75% | > 75% | > 75% |
| O=S(=O)(/C=C\c1ccc(F)cc1)Cc1ccccc1 [Example 9, Z-4-Fluorostyryl Benzylsulfone] | 20 to 25% | 20 to 25% | 20 to 25% |  |  |  |
| O=S(=O)(/C=C\c1ccc(F)cc1)Cc1ccc(Cl)cc1 [Example 10, Z-4-Fluorostyryl 4-Chlorobenzylsulfone] | 60 to 70% | 60 to 70% | 60 to 70% | 60 to 70% | 60 to 70% | 60 to 70% |
| O=S(=O)(/C=C\c1ccc(F)cc1)Cc1ccccc1Cl [Example 11, Z-4-Fluorostyryl 2-Chlorobenzylsulfone] | 20 to 25% | 20 to 25% | 20 to 25% | 20 to 25% | 20 to 25% | 20 to 25% |
| O=S(=O)(/C=C\c1ccc(F)cc1)Cc1ccc(F)cc1 [Example 12, Z-4-Fluorostyryl 4-Fluorobenzylsulfone] | 40 to 50% | 40 to 50% | 40 to 50% | 40 to 50% | 40 to 50% | 40 to 50% |
| O=S(=O)(/C=C\c1ccc(Br)cc1)Cc1ccccc1 [Example 13, Z-4-Bromostyryl Benzylsulfone] | 20 to 25% | 20 to 25% | 20 to 25% |  |  |  |
| O=S(=O)(/C=C\c1ccc(Br)cc1)Cc1ccc(Cl)cc1 [Example 14, Z-4-Bromostyryl 4-Chlorobenzylsulfone] | > 75% | > 75% | > 75% | > 75% | > 75% | > 75% |
| O=S(=O)(/C=C\c1ccc(Br)cc1)Cc1ccccc1Cl [Example 15, Z-4-Bromostyryl 2-Chlorobenzylsulfone] | 20 to 25% | 20 to 25% | 20 to 25% | 20 to 25% | 20 to 25% | 20 to 25% |
| O=S(=O)(/C=C\c1ccc(Br)cc1)Cc1ccc(F)cc1 [Example 16, Z-4-Bromostyryl 4-Fluorobenzylsulfone] | 60 to 70% | 60 to 70% | 60 to 70% | 60 to 70% | 60 to 70% | 60 to 70% |
| Cc1ccc(/C=C\S(=O)(=O)Cc2ccccc2)cc1 [Example 17, Z-4-Methylstyryl Benzylsulfone] | 20 to 25% | 20 to 25% | 20 to 25% |  |  |  |
| Cc1ccc(/C=C\S(=O)(=O)Cc2ccc(Cl)cc2)cc1 [Example 18, Z-4-Methylstyryl 4-Chlorobenzylsulfone] | 20 to 25% | 20 to 25% | 20 to 25% | 20 to 25% | 20 to 25% | 20 to 25% |
| Cc1ccc(/C=C\S(=O)(=O)Cc2ccccc2Cl)cc1 [Example 19, Z-4-Methylstyryl 2-Chlorobenzylsulfone] | 20 to 25% | 20 to 25% | 20 to 25% |  |  |  |
| Cc1ccc(/C=C\S(=O)(=O)Cc2ccc(F)cc2)cc1 [Example 20, Z-4-Methylstyryl 4-Fluorobenzylsulfone] | 20 to 25% | 20 to 25% | 20 to 25% | 20 to 25% | 20 to 25% | 20 to 25% |
